{"source": "ChEMBL document CHEMBL1201862", "about": "“PubChem BioAssay data set” (2004)", "key": {"[1]": {"target": "T1, DNA repair protein RAD52 homolog (Homo sapiens, UniProt P43351)", "T1 sequence (P43351 whole entry)": "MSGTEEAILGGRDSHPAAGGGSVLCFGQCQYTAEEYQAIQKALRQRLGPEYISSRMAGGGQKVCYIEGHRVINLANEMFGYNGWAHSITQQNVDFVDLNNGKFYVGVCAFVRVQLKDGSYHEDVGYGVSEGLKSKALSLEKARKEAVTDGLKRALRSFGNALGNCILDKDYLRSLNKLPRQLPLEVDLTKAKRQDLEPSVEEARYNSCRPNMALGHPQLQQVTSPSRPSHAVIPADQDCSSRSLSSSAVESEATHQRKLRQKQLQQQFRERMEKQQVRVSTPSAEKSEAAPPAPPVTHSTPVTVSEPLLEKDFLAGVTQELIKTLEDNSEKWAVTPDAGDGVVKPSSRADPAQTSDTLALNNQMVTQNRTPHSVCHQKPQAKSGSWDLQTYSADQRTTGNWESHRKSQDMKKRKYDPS", "assay_type": "functional, biochemical"}, "Streptokinase A": {"target": "T2, Streptokinase A (Streptococcus pyogenes serotype M1, UniProt P10520)", "T2 sequence (P10520 whole entry)": "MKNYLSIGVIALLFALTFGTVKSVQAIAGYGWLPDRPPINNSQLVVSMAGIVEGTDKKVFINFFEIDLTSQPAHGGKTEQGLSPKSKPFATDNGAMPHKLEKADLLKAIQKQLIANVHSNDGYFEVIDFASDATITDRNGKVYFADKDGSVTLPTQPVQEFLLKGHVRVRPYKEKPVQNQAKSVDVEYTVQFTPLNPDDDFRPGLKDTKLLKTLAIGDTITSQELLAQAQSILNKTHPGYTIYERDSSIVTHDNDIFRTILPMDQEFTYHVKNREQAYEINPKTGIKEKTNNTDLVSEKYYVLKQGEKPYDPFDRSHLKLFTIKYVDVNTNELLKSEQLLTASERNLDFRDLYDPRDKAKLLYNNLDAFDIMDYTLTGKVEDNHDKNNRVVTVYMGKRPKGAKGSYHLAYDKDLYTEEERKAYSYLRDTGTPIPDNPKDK", "test": "viability-normalized secreted streptokinase activity reduction – plasminogen activation absorbance, OD405, dose response (AID 1914)", "assay_type": "functional, Streptococcus pyogenes M1 GAS"}, "[2]": {"test": "alpha-synuclein stem-loop luciferase translation blockers – H4 neuroglioma cells, luminescence, confirmation (AID 1988)", "assay_type": "functional, cell-based"}, "[3]": {"test": "Luminescence Cell-Based Dose Response HTS to Identify Inhibitors of 5'UTR Stem-Loop Driven Prion Protein mRNA Translation in H4 Neuroglioblastoma Cells. [Related pubchem assays: 1827 (Project Summary), 1813 (Primary HTS)]", "assay_type": "functional"}, "Streptococcus": {"system": "Streptococcus", "test": "GAS UMAA2166 growth inhibition – luminescence, BacTiterGlo, counter-screen for streptokinase expression inhibitor project, dose response (AID 1915);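 further: potency for reduction of bacterial viability or growth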", "assay_type": "functional, organism-based"}, "[4]": {"test": "luciferase reporter signal suppression in cells – H4 neuroglioma cells, luminescence, dose response (AID 1990)", "assay_type": "functional, cell-based"}, "INS1": {"system": "INS1", "test": "INS-1E survival protection against cytokine death – cell-based, luminescence, retest, dose response (AID 449756);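 further: cell death triggered by IL-1 beta plus TNF-alpha plus IFN-gamma mixture; protective hits raise ATP signal compared with cytokine alone wells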", "assay_type": "functional", "conditions": "Rattus norvegicus"}, "[5]": {"system": "Streptococcus sp. 'group A'", "test": "Streptococcus pyogenes SK(-)GAS viability under kanamycin – luminescence, BacTiterGlo, confirmation, counter-screen for streptokinase expression inhibitor project, dose response (AID 1900)", "assay_type": "functional, organism-based"}, "Vero": {"system": "Vero", "test": "cells", "assay_type": "functional", "conditions": "Chlorocebus sabaeus"}, "[6]": {"test": "P. falciparum Dd2 growth inhibitors, dose response, SYBR Green, cherry-picked samples (AID 1159567)", "assay_type": "functional, cell-based"}, "[7]": {"target": "Luciferin 4-monooxygenase (Photinus pyralis, UniProt P08659)", "sequence (P08659 whole entry)": "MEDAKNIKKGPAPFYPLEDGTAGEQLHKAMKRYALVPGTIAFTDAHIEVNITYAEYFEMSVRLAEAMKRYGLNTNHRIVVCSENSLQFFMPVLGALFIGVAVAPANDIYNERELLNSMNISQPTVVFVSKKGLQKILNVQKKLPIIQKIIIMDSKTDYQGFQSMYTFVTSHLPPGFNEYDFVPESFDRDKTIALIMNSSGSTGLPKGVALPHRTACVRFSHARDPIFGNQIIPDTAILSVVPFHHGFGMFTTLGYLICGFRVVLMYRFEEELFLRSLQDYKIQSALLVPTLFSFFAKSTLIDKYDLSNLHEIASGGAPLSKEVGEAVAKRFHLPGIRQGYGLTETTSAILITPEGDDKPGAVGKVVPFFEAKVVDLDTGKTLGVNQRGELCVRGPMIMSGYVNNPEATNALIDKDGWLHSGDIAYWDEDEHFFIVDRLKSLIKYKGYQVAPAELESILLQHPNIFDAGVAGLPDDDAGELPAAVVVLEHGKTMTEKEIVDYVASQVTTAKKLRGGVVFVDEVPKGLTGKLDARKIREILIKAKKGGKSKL", "test": "inhibition of purified Photinus pyralis luciferase – biochemical, luminescence, dose response (AID 1891)"}, "[8]": {"test": "Luminescence Cell-Based Dose Confirmation HTS to Identify Inhibitors of Platelet Dense Granule Release. [Related pubchem assays: 1663 (Primary HTS), 1678 (Summary of Project)]", "assay_type": "functional"}, "[9]": {"target": "T3, Calpain-2 catalytic subunit (Sus scrofa, UniProt P43367)", "T3 sequence (P43367 whole entry)": "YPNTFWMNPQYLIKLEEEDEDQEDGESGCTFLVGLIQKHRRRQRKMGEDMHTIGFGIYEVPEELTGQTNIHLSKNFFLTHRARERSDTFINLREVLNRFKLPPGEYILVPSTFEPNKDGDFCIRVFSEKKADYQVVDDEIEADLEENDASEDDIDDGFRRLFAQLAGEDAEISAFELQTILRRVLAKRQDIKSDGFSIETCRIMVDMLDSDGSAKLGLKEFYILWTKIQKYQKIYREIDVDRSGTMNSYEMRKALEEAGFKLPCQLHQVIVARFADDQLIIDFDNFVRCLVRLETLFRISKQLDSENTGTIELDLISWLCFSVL", "test": "m-calpain protease blockers, concentration series – biochemical, fluorogenic peptide substrate, dose response (AID 1420)", "assay_type": "functional"}, "Cytochrome P450 3A4": {"target": "Cytochrome P450 3A4 (Homo sapiens, UniProt P08684)", "sequence (P08684 whole entry)": "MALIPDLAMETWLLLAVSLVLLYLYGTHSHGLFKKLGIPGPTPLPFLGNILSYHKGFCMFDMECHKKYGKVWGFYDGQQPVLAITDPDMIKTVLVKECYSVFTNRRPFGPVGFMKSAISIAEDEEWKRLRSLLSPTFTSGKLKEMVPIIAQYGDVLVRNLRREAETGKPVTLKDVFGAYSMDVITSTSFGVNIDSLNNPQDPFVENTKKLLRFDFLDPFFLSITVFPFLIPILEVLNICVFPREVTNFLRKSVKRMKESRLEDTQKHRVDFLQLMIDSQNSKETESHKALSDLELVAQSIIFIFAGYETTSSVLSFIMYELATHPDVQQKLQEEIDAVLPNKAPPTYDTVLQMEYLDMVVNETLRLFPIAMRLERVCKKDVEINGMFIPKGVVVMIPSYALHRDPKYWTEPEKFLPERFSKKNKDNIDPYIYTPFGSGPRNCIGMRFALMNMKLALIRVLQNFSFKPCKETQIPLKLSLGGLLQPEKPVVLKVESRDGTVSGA"}, "Cytochrome P450 2C19": {"target": "Cytochrome P450 2C19 (Homo sapiens, UniProt P33261)", "sequence (P33261 whole entry)": "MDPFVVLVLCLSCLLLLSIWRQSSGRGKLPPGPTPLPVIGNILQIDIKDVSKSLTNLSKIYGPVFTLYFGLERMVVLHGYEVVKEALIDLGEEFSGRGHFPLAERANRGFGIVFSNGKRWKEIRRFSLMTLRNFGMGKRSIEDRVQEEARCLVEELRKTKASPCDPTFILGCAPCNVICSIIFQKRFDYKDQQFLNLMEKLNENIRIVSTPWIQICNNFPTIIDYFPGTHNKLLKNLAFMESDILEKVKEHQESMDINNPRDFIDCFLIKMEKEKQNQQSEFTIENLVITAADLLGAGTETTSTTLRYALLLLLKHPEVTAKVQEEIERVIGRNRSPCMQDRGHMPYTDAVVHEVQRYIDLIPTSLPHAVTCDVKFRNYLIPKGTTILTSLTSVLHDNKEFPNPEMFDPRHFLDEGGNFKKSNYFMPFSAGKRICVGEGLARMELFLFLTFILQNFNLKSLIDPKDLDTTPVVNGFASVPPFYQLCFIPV", "test": "Cytochrome panel assay with activity outcomes. Panel member name: p450-cyp2c19 Compounds with AC50 equal or less than 10 uM are considered active", "assay_type": "functional"}, "Paired box protein Pax-8": {"target": "Paired box protein Pax-8 (Homo sapiens, UniProt Q06710)", "sequence (Q06710 whole entry)": "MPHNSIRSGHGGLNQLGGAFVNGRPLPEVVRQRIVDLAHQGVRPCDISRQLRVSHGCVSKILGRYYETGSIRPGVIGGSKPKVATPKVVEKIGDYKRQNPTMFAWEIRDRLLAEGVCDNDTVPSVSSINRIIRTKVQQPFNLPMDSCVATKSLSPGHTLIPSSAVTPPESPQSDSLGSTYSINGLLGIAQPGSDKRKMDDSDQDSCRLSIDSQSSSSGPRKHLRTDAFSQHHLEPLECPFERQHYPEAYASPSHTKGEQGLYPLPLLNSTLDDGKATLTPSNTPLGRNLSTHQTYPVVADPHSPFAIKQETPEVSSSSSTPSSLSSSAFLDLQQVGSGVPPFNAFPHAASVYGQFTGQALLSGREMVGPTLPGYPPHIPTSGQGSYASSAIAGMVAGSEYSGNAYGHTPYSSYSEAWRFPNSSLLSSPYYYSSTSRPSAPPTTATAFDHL", "test": "PAX8 transcriptional activity inhibition in RMG-I – RMG-I cells, luciferase, cherry-pick, dose response (AID 687027);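 further: luciferase reporter driven by Pax8 target thyroperoxidase promoter measured by SteadyGlo luminescence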", "assay_type": "functional, cell-based"}, "[10]": {"test": "OVCAR8 cell viability loss – plate reader, dry powder samples, PAX8 project, dose response (AID 743197)", "assay_type": "functional, cell-based", "conditions": "OVCAR-8"}}, "note": "The source made the active and inactive calls."}
{"compound": "COc1ccc2nc(NCCN=C(S)NCCCN3CCOCC3)c(C#N)cc2c1", "values": [{"measurement": "AC50", "setting": "[1]", "result": "9.87 µM (active)"}]}
{"compound": "CN(C)CCCNc1nc2cc(-c3cnn(C)c3)sc2c(=O)n1C", "values": [{"measurement": "AC50", "setting": "[1]", "result": "10.2 µM (active)"}]}
{"compound": "O=C1c2ccc3c4c(ccc(c24)C(=O)N1c1cccc(O)c1)C(=O)N(c1cccc(O)c1)C3=O", "values": [{"measurement": "EC50", "setting": "Streptokinase A", "result": "> 150 µM (not active)"}, {"measurement": "EC50", "setting": "[2]", "result": "15.1 µM (active)"}, {"measurement": "EC50", "setting": "[3]", "result": "85.7 µM (active)"}, {"measurement": "EC50", "setting": "Streptococcus", "result": "1.29 µM (active)"}, {"measurement": "EC50", "setting": "[4]", "result": "17.1 µM (active)"}, {"measurement": "AC50", "setting": "INS1", "result": "0.848 µM (active)"}, {"measurement": "EC50", "setting": "[5]", "result": "1.22 µM (active)"}, {"measurement": "CC50", "setting": "Vero", "result": "> 25 µM (active)"}]}
{"compound": "CC(=O)Nc1cccc(-c2cc(N3CCN(CCO)CC3)n3nccc3n2)c1", "values": [{"measurement": "AC50", "setting": "[1]", "result": "27.6 µM (active)"}]}
{"compound": "COc1cccc(CNC(=O)c2cc3c(c(-c4cccc(-c5ccncc5)c4)n2)[C@@H](CCO)N([S@+]([O-])C(C)(C)C)C3)c1", "values": [{"measurement": "AC50", "setting": "[6]", "result": "4.32 µM (active)"}]}
{"compound": "Fc1ccccc1Nc1nc2ccccc2o1", "values": [{"measurement": "EC50", "setting": "[7]", "result": "0.83 µM (active)"}, {"measurement": "EC50", "setting": "[8]", "result": "4.57 µM (active)"}]}
{"compound": "COc1ccccc1CNC(=O)C[C@H]1C[C@H]2c3cc(NC(=O)Cc4ccncc4)ccc3O[C@H]2[C@@H](CO)O1", "values": [{"measurement": "AC50", "setting": "[6]", "result": "4.52 µM (active)"}]}
{"compound": "Cc1cc(C(=O)N/N=C/c2ccc(OCc3ccccc3)cc2)c(C)o1", "values": [{"measurement": "IC50", "setting": "[9]", "result": "< 0.4 µM (not active)"}]}
{"compound": "Cc1ccc(SCCN=C(S)Nc2cc(C)cc(C)c2)cc1", "values": [{"measurement": "IC50", "setting": "[9]", "result": "6.82 µM (not active)"}]}
{"compound": "CCN(CC)CCN1CCn2c3c(c4cc(C)ccc42)CCCC31", "note": "(centres undefined)", "values": [{"measurement": "AC50", "setting": "[1]", "result": "17.6 µM (active)"}]}
{"compound": "CC(C)(C)[S@+]([O-])N1Cc2cc(C(=O)NCCN3CCCCC3)nc(-c3cccc(-c4ccc(C#N)cc4)c3)c2[C@@H]1CCO", "values": [{"measurement": "AC50", "setting": "[6]", "result": "9.22 µM (active)"}]}
{"compound": "CCn1ccc(C(=O)Nc2c(C)nn(Cc3c(F)c(F)c(F)c(F)c3F)c2C)n1", "values": [{"measurement": "EC50", "setting": "[7]", "result": "> 112 µM (not active)"}, {"measurement": "EC50", "setting": "[8]", "result": "> 112 µM (not active)"}]}
{"compound": "CCOc1cc2c(cc1C(C)(C)C)NC(=O)CS2", "values": [{"measurement": "EC50", "setting": "[7]", "result": "> 112 µM (not active)"}, {"measurement": "EC50", "setting": "[8]", "result": "> 112 µM (not active)"}]}
{"compound": "CCC(=O)N1CCc2cc(S(=O)(=O)N3CCc4ccccc4C3)ccc21", "values": [{"measurement": "IC50", "setting": "[9]", "result": "< 0.4 µM (not active)"}]}
{"compound": "Cc1ccccc1S(=O)(=O)N1[C@H](CO)[C@@H](c2ccc(C#CC3CC3)cc2)[C@@H]1C#N", "values": [{"measurement": "AC50", "setting": "[6]", "result": "4.33 µM (active)"}]}
{"compound": "C[C@@H]1CN([C@H](C)CO)C(=O)c2c(c3ccccc3n2C)-c2ccccc2CO[C@@H]1CN(C)Cc1cccc(F)c1", "values": [{"measurement": "AC50", "setting": "[6]", "result": "3.45 µM (active)"}]}
{"compound": "Cc1ccc2c(c1)c1c3n2CCN(CC(O)CNC(C)C)C3CCC1", "note": "(centres undefined)", "values": [{"measurement": "AC50", "setting": "[1]", "result": "15.8 µM (active)"}]}
{"compound": "COc1ccc(CO/N=C/c2c(C)nc(O)nc2O)cc1", "values": [{"measurement": "EC50", "setting": "[7]", "result": "> 112 µM (not active)"}, {"measurement": "EC50", "setting": "[8]", "result": "13.8 µM (active)"}]}
{"compound": "COc1cccc(/C=N/Nc2ccc(S(=O)(=O)O)cc2)c1O", "values": [{"measurement": "EC50", "setting": "[7]", "result": "3.91 µM (active)"}, {"measurement": "EC50", "setting": "[8]", "result": "3.13 µM (active)"}]}
{"compound": "CC(C)C[C@H](NC(=O)[C@@H]1O[C@H]1C(=O)O)C(=O)NCCCCN=C(N)N", "values": [{"measurement": "AC50", "setting": "Cytochrome P450 3A4", "result": "0.158 µM (inconclusive)"}, {"measurement": "IC50", "setting": "[9]", "result": "> 50 µM (not active)"}, {"measurement": "AC50", "setting": "Cytochrome P450 2C19", "result": "inconclusive"}]}
{"compound": "COc1ccc(S(=O)(=O)N(C)C[C@H]2OCCCC[C@@H](C)Oc3ccc(NS(=O)(=O)c4c(C)noc4C)cc3C(=O)N([C@H](C)CO)C[C@H]2C)cc1", "values": [{"measurement": "AC50", "setting": "Paired box protein Pax-8", "result": "7.76 µM (active)"}, {"measurement": "AC50", "setting": "[10]", "result": "66 µM (active)"}]}
{"compound": "O=C(Nc1cccc(-c2nnc(-c3ccco3)o2)c1)c1ccccc1", "values": [{"measurement": "IC50", "setting": "[9]", "result": "2.37 µM (not active)"}]}
{"compound": "C[C@H](CO)N1C[C@H](C)[C@H](CN(C)Cc2ccc(C(F)(F)F)cc2)OCCCC[C@H](C)Oc2ccc(NC(=O)c3ccccc3)cc2C1=O", "values": [{"measurement": "AC50", "setting": "Paired box protein Pax-8", "result": "9.33 µM (active)"}, {"measurement": "AC50", "setting": "[10]", "result": "43.7 µM (active)"}]}
{"compound": "COc1cccc(S(=O)(=O)N(C)C[C@H]2OCc3ccccc3-c3c(n(C)c4ccccc34)C(=O)N([C@H](C)CO)C[C@H]2C)c1", "values": [{"measurement": "AC50", "setting": "Paired box protein Pax-8", "result": "9.53 µM (active)"}, {"measurement": "AC50", "setting": "[10]", "result": "> 70 µM (inactive)"}]}
{"compound": "COc1ccc(N(C(=O)Cn2nnc(-c3ccccc3F)n2)C(C(=O)NCC2CCCO2)c2ccc(Cl)cc2)cc1", "note": "(centres undefined)", "values": [{"measurement": "IC50", "setting": "[9]", "result": "> 50 µM (not active)"}]}
{"compound": "Cc1ccc(S(=O)(=O)N(C)C[C@@H]2OCCCC[C@H](C)Oc3ccc(NS(=O)(=O)c4cccs4)cc3C(=O)N([C@H](C)CO)C[C@H]2C)cc1", "values": [{"measurement": "AC50", "setting": "Paired box protein Pax-8", "result": "6.6 µM (active)"}, {"measurement": "AC50", "setting": "[10]", "result": "> 70 µM (inactive)"}]}
